From US20080207684A1, “Kinase inhibitors and methods for using the same” (Roche Palo Alto LLC, priority 2007, published 2008)

Target: T1, p38 MAP kinase (Homo sapiens, UniProt Q16539)
T1 construct: made in house; host or cells: E. coli (co-expressed with SEK-1 and MEKK)
Test: p38 (MAP) kinase in vitro assay (transfer of γ-33P from ATP to Myelin Basic Protein)
Type: biochemical
Conditions: phosphorylated recombinant p38 MAP kinase, MBP substrate, γ-33P-ATP, 30° C.
Description: This example illustrates a p38 (MAP) kinase in vitro assay useful for evaluating the compounds of the invention.
The p38 MAP kinase inhibitory activity of compounds of this invention in vitro was determined by measuring the transfer of the γ-phosphate from γ-^33P-ATP by p-38 kinase to Myelin Basic Protein (MBP), using a minor modification of the method described in Ahn, et al., J. Biol. Chem. 266:4220-4227 (1991).
The phosphorylated form of the recombinant p38 MAP kinase was co-expressed with SEK-1 and MEKK in E. Coli (see, Khokhlatchev, et al., J. Biol. Chem. 272:11057-11062 (1997)) and then purified by affinity chromatography using a Nickel column.
The phosphorylated p38 MAP kinase was diluted in kinase buffer (20 mM 3-(N-morpholino)propanesulfonic acid, pH 7.2, 25 mM β-glycerol phosphate, 5 mM ethylene glycol-bis(beta-aminoethyl ether)-N,N,N′,N′-tetraacetic acid, 1 mM sodium ortho-vanadate, 1 mM dithiothreitol, 40 mM magnesium chloride). Test compound dissolved in DMSO or only DMSO (control) was added and the samples were incubated for 10 min at 30° C. The kinase reaction was initiated by the addition of a substrate cocktail containing MBP and γ-^33P-ATP. […] The phosphorylated MBP was then separated from the residual γ-^33P-ATP using a phosphocellulose membrane (Millipore, Bedfrod, Mass.) and quantitated using a scintillation counter (Packard, Meriden, Conn.).

T1 sequence (Q16539 whole entry): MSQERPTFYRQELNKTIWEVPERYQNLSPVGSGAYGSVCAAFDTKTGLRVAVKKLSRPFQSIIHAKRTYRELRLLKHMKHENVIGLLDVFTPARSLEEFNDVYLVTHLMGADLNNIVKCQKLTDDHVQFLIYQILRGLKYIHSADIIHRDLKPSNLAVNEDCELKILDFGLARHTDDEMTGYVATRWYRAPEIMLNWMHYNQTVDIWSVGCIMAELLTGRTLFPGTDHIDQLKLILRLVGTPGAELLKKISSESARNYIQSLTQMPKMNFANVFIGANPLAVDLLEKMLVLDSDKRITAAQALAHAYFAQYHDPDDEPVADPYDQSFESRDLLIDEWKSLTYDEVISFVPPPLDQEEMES

An IC50 of ~3 nM was found for `CNC(=O)c1ccc(C)c(-c2cc3[nH]nc(N4CCCCC4)c3n(C)c2=O)c1` [Compound 8, 4,N-Dimethyl-3-(4-methyl-5-oxo-3-piperidin-1-yl-4,5-dihydro-1H-pyrazolo[4,3-b]pyridin-6-yl)-benzamide] in this work.
